Here are results for 2 compounds from PMC7136958, “Targeting the pregnane X receptor using microbial metabolite mimicry” (EMBO Molecular Medicine, 2020).

SMILES strings stand for the structures. “And” between values parts separate entries of the source, which are not always exact repeats. Identical values can stand only once. Like-named read-outs stand apart in the source and are kept apart here.

Data set [1] deals with JNK2 (Homo sapiens, UniProt P45984). The data set is described as follows: KINOMEscan select kinase screen. The format is binding. Particulars: two experiments. Here is the method:
(§1) Kinase Assays. The kinase inhibition assays were conducted by DiscoverX on a platform assay by Ambit BioSciences as described previously 16,17. FKK6 was screened at a single concentration of 10 μM in duplicate. The scanMAXSM assay panel measures 468 kinases
(§2) (https://www.discoverx.com/services/drug-discovery-development-services/kinase-profiling/kinomescan/scanmax). The assays measure a compound’s ability to inhibit binding of a canonical ligand substrate, with 0% activity of control corresponding to full inhibition and 100% activity of control to no inhibition. […]

Data set [2] has as its target S6K1 (Homo sapiens, UniProt P23443). Kind of data set: KINOMEscan select kinase screen. The class given is binding. Particulars: two experiments. As for the experimental part:
as §1, §2

The target in data set [3] is JNK1 (Homo sapiens, UniProt P45983). Kind of data set: KINOMEscan select kinase screen. The class given is binding. The note with it: two experiments. As for the experimental part:
as §1, §2

The target in data set [4] is T1, SIRT1 (Homo sapiens, UniProt Q96EB6).
T1 construct: full -length N-terminal His-tag protein (MW 83.2 kDa); His-tag (N); purchased Reaction Biology Corp; host or cells: E. coli
Kind of data set: Sirtuin (SIRT1) assay. Particulars: substrate Acetylated peptide, replicates. The class given is biochemical. As for the experimental part:
Software Tool and reprinted with permission from KINOME scan®, a division of DiscoveRx […]
The following […] assays (HDAC, SIRT1, PRMT1, PARP1, p300, pCAF) were performed by Reaction Biology Corp. FKK6 was screened at a single concentration of 10 μM in duplicate in two separate experiments. The appropriate controls for the individual assays are published. The overall […]
enzyme activity in the assay is reported as a % activity in DMSO control wells. Control IC50 […]
Briefly, for the Sirtuin (SIRT1) assay, human SIRT1 (GenBank
Accession No. NM012238) full -length N-terminal His-tag protein (MW 83.2 kDa) was purified after expression in E. coli. The reaction buffer was freshly prepared and constituted 50 mM Tris-HC l ( p H 8), 137 mM NaCl, 2.7 mM KCl, 1 mM MgCl2, and just before use, 1 mg/mL BSA and 1% DMSO was added. The substrate was a fluorogenic acetylated peptide of p53 residues 379-382 (RHKK (Ac)- AM C) . In th e multi-well format, the 2X enzyme was mixed with the reaction buffer followed by compound (in 100% DMSO) titration via Acoustic technology (Echo550; LabCyte Inc, Sunnyvale, CA) in the nanoliter range. The mixture was spun down and 2X substrate (including NAD+) was added to initiate the reaction at 30° C at 2h under seal. […] Fluorescence kinetic measurements were conducted for 1.5 h in 15 min intervals using Envision (Ex 360nm/Em 460nm). […]

Data set [5] relates to C57BL/6 mice. Kind of data set: PXR target gene expression in C57BL/6 mice after FKK6 gavage. The class given is in vivo, mouse. Particulars: for Cyp3a11 fold expression / mdr1 fold expression: Fig 4d. As for the experimental part: (§3) (Scheer et al, 2010) were administered 10% DMSO (n = 3) or FKK6 (n = 3) in 3 or 5 doses, with each dose interval of 12 h. Each gavage dose volume was 100 μl. 2–4 h after the dosing period, mice were sacrificed, and tissues were harvested for further analysis. The mouse studies were performed three independent times over an 18‐month period. All purchased mice were acclimatized in the Einstein vivarium for ~ 2 weeks before experiments started. […]. The room temperature was maintained at 25 ± 2°C with 55 ± 5% humidity. All studies were approved by the Institute of Animal Studies at the Albert Einstein College of Medicine, INC (IACUC # 20160706, 20160701 and preceding protocols), and specific animal protocols were also approved by additional protocols (IACUC# 20170406, 20170504) and Animal Care and Use Review Office (ACURO) of the US Army Medical Research and Materiel Command (PR160167, W81XWH‐17‐1‐0479). […]
(§4) Mouse small, large intestine and liver samples were collected and total RNAs were […]
(§5) isolated. […] Each tissue PCR was […]
(§6) repeated in quadruplicate. The expression was normalized to internal control, GAPDH. ( b,d) The histograms show mean (95 %CI) values, c, mean (SD) and two way ANOVA followed with Tukey's post hoc test. The entire experiment was repeated n = 3 for reproducibility. The data shown is one representative experiment .

The test system of data set [6] is mdr1a. The data set is described as above. The class given is in vivo, mouse. Particulars: both sexes, C57BL/6J, mouse, 500 μM, 5 doses (60 h), individual mice. As for the experimental part:
as §3, §4, §5, §6

Data set [7] relates to Cyp3a11. Described as above. The class given is in vivo, mouse. Particulars: both sexes, C57BL/6J, mouse, 500 μM, 5 doses (60 h), individual mice. As for the experimental part: as §3, §4, §5, §6
Setting [8] is: 500 μM, 5 doses (60 h), individual mice.

T1 sequence (Q96EB6 whole entry): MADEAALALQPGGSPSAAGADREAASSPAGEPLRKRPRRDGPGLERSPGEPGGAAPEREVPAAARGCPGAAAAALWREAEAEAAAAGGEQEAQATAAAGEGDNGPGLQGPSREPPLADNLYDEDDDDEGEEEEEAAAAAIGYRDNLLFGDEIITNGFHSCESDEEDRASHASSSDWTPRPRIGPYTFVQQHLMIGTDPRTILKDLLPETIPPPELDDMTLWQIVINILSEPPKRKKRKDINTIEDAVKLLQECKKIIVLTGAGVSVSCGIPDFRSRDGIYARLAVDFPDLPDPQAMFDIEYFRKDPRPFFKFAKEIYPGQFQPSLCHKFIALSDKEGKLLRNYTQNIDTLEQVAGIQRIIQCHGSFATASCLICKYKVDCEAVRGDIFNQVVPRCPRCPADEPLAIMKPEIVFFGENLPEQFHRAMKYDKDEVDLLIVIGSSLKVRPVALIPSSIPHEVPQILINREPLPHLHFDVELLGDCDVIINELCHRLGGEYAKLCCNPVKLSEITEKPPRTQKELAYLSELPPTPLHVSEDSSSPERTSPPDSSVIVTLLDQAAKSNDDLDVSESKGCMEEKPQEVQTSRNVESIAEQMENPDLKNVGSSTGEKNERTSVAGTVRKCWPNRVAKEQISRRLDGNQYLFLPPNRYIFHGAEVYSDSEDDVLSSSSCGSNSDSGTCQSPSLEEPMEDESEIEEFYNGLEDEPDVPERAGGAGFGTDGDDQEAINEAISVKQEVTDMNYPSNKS
S6K1, sequence (P23443 whole entry): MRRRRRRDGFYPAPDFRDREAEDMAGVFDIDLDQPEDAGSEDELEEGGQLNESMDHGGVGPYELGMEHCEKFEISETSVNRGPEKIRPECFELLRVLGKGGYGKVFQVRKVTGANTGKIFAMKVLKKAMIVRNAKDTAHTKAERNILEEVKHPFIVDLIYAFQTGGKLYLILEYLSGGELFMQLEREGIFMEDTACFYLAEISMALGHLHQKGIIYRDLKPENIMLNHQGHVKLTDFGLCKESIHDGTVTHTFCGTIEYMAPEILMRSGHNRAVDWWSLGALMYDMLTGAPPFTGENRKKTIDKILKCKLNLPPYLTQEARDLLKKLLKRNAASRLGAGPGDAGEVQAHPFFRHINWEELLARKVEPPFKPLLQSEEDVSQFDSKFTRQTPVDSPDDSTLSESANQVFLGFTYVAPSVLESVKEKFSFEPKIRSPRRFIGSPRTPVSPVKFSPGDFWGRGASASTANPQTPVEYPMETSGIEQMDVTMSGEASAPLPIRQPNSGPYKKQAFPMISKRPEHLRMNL
JNK2, sequence (P45984 whole entry): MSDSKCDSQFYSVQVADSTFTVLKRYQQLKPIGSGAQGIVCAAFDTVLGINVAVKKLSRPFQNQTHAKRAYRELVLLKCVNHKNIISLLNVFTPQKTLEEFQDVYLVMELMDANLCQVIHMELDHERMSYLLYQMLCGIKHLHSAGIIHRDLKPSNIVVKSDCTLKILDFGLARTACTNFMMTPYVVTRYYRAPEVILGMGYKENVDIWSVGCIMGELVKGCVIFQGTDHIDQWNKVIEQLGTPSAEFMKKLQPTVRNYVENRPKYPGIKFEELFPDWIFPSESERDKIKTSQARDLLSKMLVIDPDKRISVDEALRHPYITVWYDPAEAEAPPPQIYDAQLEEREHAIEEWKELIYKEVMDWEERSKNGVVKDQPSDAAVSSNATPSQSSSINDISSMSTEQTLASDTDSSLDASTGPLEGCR
JNK1, sequence (P45983 whole entry): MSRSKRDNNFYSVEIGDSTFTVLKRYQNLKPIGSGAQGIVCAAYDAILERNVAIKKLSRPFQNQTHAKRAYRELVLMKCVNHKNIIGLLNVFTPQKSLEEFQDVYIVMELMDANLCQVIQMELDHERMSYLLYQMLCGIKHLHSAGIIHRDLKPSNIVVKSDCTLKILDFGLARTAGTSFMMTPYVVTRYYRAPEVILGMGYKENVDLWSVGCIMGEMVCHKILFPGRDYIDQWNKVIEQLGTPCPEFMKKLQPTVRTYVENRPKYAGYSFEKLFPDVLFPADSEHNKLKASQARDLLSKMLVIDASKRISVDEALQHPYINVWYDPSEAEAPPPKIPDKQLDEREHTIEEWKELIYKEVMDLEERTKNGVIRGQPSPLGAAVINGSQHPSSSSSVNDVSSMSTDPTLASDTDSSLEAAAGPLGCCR

Consider `O=C(c1ccncc1)c1cc2ccccc2n1S(=O)(=O)c1ccccc1` [FKK5, (1-(phenylsulfonyl)-1H-indol-2-yl)(pyridin-4-yl)methanone], for which the “%Ctrl” value is 88 %Ctrl in data set [1] (10000 nM, 10 µM); 80 %Ctrl in data set [1] (25000 nM, 25 µM); 79 %Ctrl and 100 %Ctrl in data set [2] (10000 nM, 10 µM); 89 %Ctrl in data set [2] (25000 nM, 25 µM); 95 %Ctrl in data set [3] (10000 nM, 10 µM); 85 %Ctrl in data set [3] (25000 nM, 25 µM). The remaining binding at 10 µM in data set [1] (10000 nM, read-out: %Ctrl) was 95%; in data set [3] (10000 nM, read-out: %Ctrl) it was 91%. Also, the remaining binding at 25 µM in data set [1] (25000 nM, read-out: %Ctrl) is 74%; in data set [2] (25000 nM, read-out: %Ctrl), 71%; in data set [3] (25000 nM, read-out: %Ctrl), 66%.
For `C#CCC(O)(c1ccncc1)c1cc2ccccc2n1S(=O)(=O)c1ccccc1` (stereo not shown) [FKK6], in data set [4] (10 μM), the “% Enzyme Activity to DMSO controls” value was 100.03% and 99.84% and 94.47%. Further, in data set [4] (read-out: % Enzyme Activity to DMSO controls), the remaining activity at 10 µM worked out at 100%. In addition, the “Cyp3a11 fold induction, Liver” value in data set [5] (500 μM FKK6 gavage every 12 h, 5 doses (60 h), individual mice) was 1.38 fold and 0.89 fold. For the same compound, in data set [5] (setting [8]), the “Cyp3a11 fold induction, Large Intestine” value is 2.23 fold and 0.59 fold; the “Cyp3a11 fold induction, Small Intestine” value is 1.06 fold and 0.22 fold and 0.76 fold; the “mdr1a fold induction, Large Intestine” value was 1.77 fold and 1.33 fold; the “mdr1a fold induction, Liver” value is 1.83 fold. In addition, in data set [5] (setting [8]), the “mdr1a fold induction, Small Intestine” value is 2.65 fold and 1.8 fold and 0.95 fold; the “mdr1b fold induction, Large Intestine” value was 0.89 fold and 0.42 fold and 0.77 fold; the “mdr1b fold induction, Liver” value was 1.65 fold and 1.12 fold and 0.6 fold; the “mdr1b fold induction, Small Intestine” value is 2.4 fold and 1.54 fold and 0.43 fold. In data set [5] (Large Intestine), the Cyp3a11 fold expression was 1.73 fold and 2.49 fold and 1.98 fold; the mdr1 fold expression is 1.58 fold and 1.34 fold and 1.57 fold. In addition, in data set [5] (Liver), the Cyp3a11 fold expression was 1.21 fold and 1.31 fold and 1.6 fold; the mdr1 fold expression was 0.95 fold and 0.87 fold and 0.81 fold. Moreover, in data set [5] (Small Intestine), the Cyp3a11 fold expression is 1.28 fold and 1.07 fold and 0.75 fold; the mdr1 fold expression was 1.46 fold and 2.26 fold and 1.43 fold. Moreover, in data set [5] (~500 μM, 36 or 60 h), the “PXR target gene (cyp3a11, mdr1a, mdr1b, mdr1) expression across organs” value is listed as “No significant effect”. The fold induction at 60 h, 500 µM in data set [6] (in vivo, read-out: mdr1a fold induction, Liver) is 1.81. In addition, the fold induction at 60 h, 500 µM in data set [6] (large intestine, oral, read-out: mdr1a fold induction, Large Intestine) amounted to 1.27. Further, the fold induction at 60 h, 500 µM in data set [6] (liver, oral, read-out: mdr1a fold induction, Liver) worked out at 3.05. In data set [7] (in vivo, read-out: Cyp3a11 fold induction, Large Intestine), the fold induction at 60 h, 500 µM came to 2.55. Moreover, the fold induction at 60 h in data set [7] (liver, oral, 500 μM FKK6 gavage every 12 h) amounted to 1.72.
